# Measured values from the supplement of paper PMC10307832.
# Experiments:
# Assay in all cases: relative viability (nuclei count vs DMSO), 5 days (fraction); higher = more cells survive
# NCI-H1734 = tested on: NCI-H1734
# Outline: (§1)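 Lung cancer cell lines, seeded in 1536-well plates, were treated the following day by pin tool with a single drug or with five library-drug doses (not always all listed) in √10 steps on top of a fixed anchor-drug dose. Cells were fixed and nuclei stained in one step after 5 days, and nuclei were counted. Relative viability is the nuclei count for treated wells divided by that for vehicle wells, reported as medians of duplicate plates.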
# CAL-12T = tested on: CAL-12T
# Outline: as §1
# NCI-H1648 = tested on: NCI-H1648
# Outline: as §1
# LC-2-ad = tested on: LC-2-ad
# Outline: as §1
# H3255 = tested on: H3255
# Outline: as §1
# HCC-366 = tested on: HCC-366
# Outline: as §1
# NCI-H1915 = tested on: NCI-H1915
# Outline: as §1
# NCI-H2347 = tested on: NCI-H2347
# Outline: as §1
# HARA = tested on: HARA
# Outline: as §1
# NCI-H838 = tested on: NCI-H838
# Outline: as §1
# RERF-LC-KJ = tested on: RERF-LC-KJ
# Outline: as §1
# HCC-15 = tested on: HCC-15
# Outline: as §1
# COR-L 105 = tested on: COR-L 105
# Outline: as §1
# LU99A = tested on: LU99A
# Outline: as §1
# NCI-H460 = tested on: NCI-H460
# Outline: as §1
# PC-14 = tested on: PC-14
# Outline: as §1
# NCI-H650 = tested on: NCI-H650
# Outline: as §1
# SW 900 = tested on: SW 900
# Outline: as §1
# NCI-H1666 = tested on: NCI-H1666
# Outline: as §1
# NCI-H1944 = tested on: NCI-H1944
# Outline: as §1
# NCI-H1437 = tested on: NCI-H1437
# Outline: as §1
smiles,measurement,setting,value
Oc1nc(-c2ccc(C(F)(F)F)cc2)nc2c1CSCC2 [XAV939] + Nc1nc2[nH]cc(CCc3ccc(C(=O)N[C@@H](CCC(=O)O)C(=O)O)cc3)c2c(=O)[nH]1 [Pemetrexed] (partner 0.2 µM),relative viability,NCI-H1734; first compound 0.08 µM,0.444
same,relative viability,NCI-H1734; first compound 0.253 µM,0.405
same,relative viability,NCI-H1734; first compound 0.8 µM,0.417
same,relative viability,NCI-H1734; first compound 2.53 µM,0.392
same,relative viability,CAL-12T; first compound 0.08 µM,1.2
same,relative viability,CAL-12T; first compound 0.253 µM,1.13
same,relative viability,CAL-12T; first compound 0.8 µM,1.18
same,relative viability,CAL-12T; first compound 2.53 µM,0.814
same,relative viability,NCI-H1648; first compound 0.253 µM,0.701
same,relative viability,NCI-H1648; first compound 0.8 µM,0.667
same,relative viability,NCI-H1648; first compound 2.53 µM,0.722
same,relative viability,LC-2-ad; first compound 0.08 µM,0.281
same,relative viability,LC-2-ad; first compound 0.253 µM,0.265
same,relative viability,LC-2-ad; first compound 0.8 µM,0.264
same,relative viability,LC-2-ad; first compound 2.53 µM,0.266
same,relative viability,H3255; first compound 0.08 µM,0.576
same,relative viability,H3255; first compound 0.253 µM,0.544
same,relative viability,H3255; first compound 0.8 µM,0.55
same,relative viability,H3255; first compound 2.53 µM,0.465
same,relative viability,HCC-366; first compound 0.08 µM,0.179
same,relative viability,HCC-366; first compound 0.253 µM,0.131
same,relative viability,HCC-366; first compound 0.8 µM,0.142
same,relative viability,HCC-366; first compound 2.53 µM,0.117
same,relative viability,NCI-H1915; first compound 0.08 µM,0.454
same,relative viability,NCI-H1915; first compound 0.253 µM,0.466
same,relative viability,NCI-H1915; first compound 0.8 µM,0.531
same,relative viability,NCI-H1915; first compound 2.53 µM,0.486
same,relative viability,NCI-H2347; first compound 0.08 µM,0.456
same,relative viability,NCI-H2347; first compound 0.253 µM,0.41
same,relative viability,NCI-H2347; first compound 0.8 µM,0.435
same,relative viability,NCI-H2347; first compound 2.53 µM,0.42
same,relative viability,HARA; first compound 0.08 µM,0.255
same,relative viability,HARA; first compound 0.253 µM,0.305
same,relative viability,HARA; first compound 0.8 µM,0.252
same,relative viability,HARA; first compound 2.53 µM,0.193
same,relative viability,NCI-H838; first compound 0.08 µM,0.252
same,relative viability,NCI-H838; first compound 0.253 µM,0.245
same,relative viability,NCI-H838; first compound 0.8 µM,0.244
same,relative viability,NCI-H838; first compound 2.53 µM,0.233
same,relative viability,RERF-LC-KJ; first compound 0.08 µM,0.493
same,relative viability,RERF-LC-KJ; first compound 0.253 µM,0.464
same,relative viability,RERF-LC-KJ; first compound 0.8 µM,0.502
same,relative viability,RERF-LC-KJ; first compound 2.53 µM,0.453
same,relative viability,HCC-15; first compound 0.08 µM,0.238
same,relative viability,HCC-15; first compound 0.253 µM,0.214
same,relative viability,HCC-15; first compound 0.8 µM,0.241
same,relative viability,HCC-15; first compound 2.53 µM,0.201
same,relative viability,COR-L 105; first compound 0.08 µM,1.09
same,relative viability,COR-L 105; first compound 0.253 µM,0.916
same,relative viability,COR-L 105; first compound 0.8 µM,1.03
same,relative viability,COR-L 105; first compound 2.53 µM,0.875
same,relative viability,LU99A; first compound 0.08 µM,0.19
same,relative viability,LU99A; first compound 0.253 µM,0.167
same,relative viability,LU99A; first compound 0.8 µM,0.184
same,relative viability,LU99A; first compound 2.53 µM,0.181
same,relative viability,NCI-H460; first compound 0.08 µM,0.0608
same,relative viability,NCI-H460; first compound 0.253 µM,0.0511
same,relative viability,NCI-H460; first compound 0.8 µM,0.07
same,relative viability,NCI-H460; first compound 2.53 µM,0.0697
same,relative viability,PC-14; first compound 0.08 µM,0.14
same,relative viability,PC-14; first compound 0.253 µM,0.12
same,relative viability,PC-14; first compound 0.8 µM,0.123
same,relative viability,PC-14; first compound 2.53 µM,0.118
same,relative viability,NCI-H650; first compound 0.08 µM,0.973
same,relative viability,NCI-H650; first compound 0.253 µM,1
same,relative viability,NCI-H650; first compound 0.8 µM,0.96
same,relative viability,NCI-H650; first compound 2.53 µM,0.816
same,relative viability,SW 900; first compound 0.253 µM,0.45
same,relative viability,SW 900; first compound 0.8 µM,0.483
same,relative viability,SW 900; first compound 2.53 µM,0.42
same,relative viability,NCI-H1666; first compound 0.08 µM,0.822
same,relative viability,NCI-H1666; first compound 0.253 µM,0.865
same,relative viability,NCI-H1666; first compound 0.8 µM,0.864
same,relative viability,NCI-H1666; first compound 2.53 µM,0.925
same,relative viability,NCI-H1944; first compound 0.08 µM,0.714
same,relative viability,NCI-H1944; first compound 0.253 µM,0.623
same,relative viability,NCI-H1944; first compound 0.8 µM,0.584
same,relative viability,NCI-H1944; first compound 2.53 µM,0.501
same,relative viability,NCI-H1437; first compound 0.08 µM,0.294
same,relative viability,NCI-H1437; first compound 0.253 µM,0.272
same,relative viability,NCI-H1437; first compound 0.8 µM,0.326
same,relative viability,NCI-H1437; first compound 2.53 µM,0.276
